# Experimental data as given in the supplement of paper PMC10307832.
# How the values were obtained:
# Assay in all cases: relative viability (nuclei count vs DMSO), 5 days (fraction); higher = more cells survive
# RU-SKI 43 + Luminespib = compound: CC[C@@H](C)CNCC(=O)N1CCC2=C([C@@H]1COC3=CC=CC(=C3)C)C=CS2 [RU-SKI 43] + CCNC(=O)c1noc(-c2cc(C(C)C)c(O)cc2O)c1-c1ccc(CN2CCOCC2)cc1 [Luminespib] (partner 0.01 µM)
# In short: (§1)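 Relative viability divides the nuclei count in treated wells by that in vehicle wells. Lung cancer cell lines were seeded in 1536-well plates, dosed by pin tool the next day, and fixed and stained after 5 days in one step with final 0.05% Triton X-100, 1% formaldehyde and 1 ug/ml Hoechst. Dosing was a single drug or a fixed anchor-drug dose plus five library-drug doses (not always all listed) in √10 steps, and values are medians of duplicate plates imaged at 4×.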
# RU-SKI 43 + Olaparib = compound: CC[C@@H](C)CNCC(=O)N1CCC2=C([C@@H]1COC3=CC=CC(=C3)C)C=CS2 [RU-SKI 43] + O=C(c1cc(Cc2n[nH]c(=O)c3ccccc23)ccc1F)N1CCN(C(=O)C2CC2)CC1 [Olaparib] (partner 8 µM)
# In short: as §1
# RU-SKI 43 + Palbociclib = compound: CC[C@@H](C)CNCC(=O)N1CCC2=C([C@@H]1COC3=CC=CC(=C3)C)C=CS2 [RU-SKI 43] + CC(=O)c1c(C)c2cnc(Nc3ccc(N4CCNCC4)cn3)nc2n(C2CCCC2)c1=O [Palbociclib] (partner 0.5 µM)
# In short: as §1
# Irinotecan + Vorinostat = compound: CCc1c2c(nc3ccc(OC(=O)N4CCC(N5CCCCC5)CC4)cc13)-c1cc3c(c(=O)n1C2)COC(=O)[C@]3(O)CC [Irinotecan] + O=C(CCCCCCC(=O)Nc1ccccc1)NO [Vorinostat] (partner 1 µM)
# In short: as §1
cell line,measurement,setting,value
UMC-11,relative viability,RU-SKI 43 + Luminespib; first compound 0.1 µM,1.13
same,relative viability,RU-SKI 43 + Luminespib; first compound 0.3162 µM,1.29
same,relative viability,RU-SKI 43 + Luminespib; first compound 1 µM,1
same,relative viability,RU-SKI 43 + Luminespib; first compound 3.162 µM,1.04
same,relative viability,RU-SKI 43 + Luminespib; first compound 10 µM,1.09
same,relative viability,RU-SKI 43 + Olaparib; first compound 0.1 µM,0.397
same,relative viability,RU-SKI 43 + Olaparib; first compound 0.3162 µM,0.418
same,relative viability,RU-SKI 43 + Olaparib; first compound 1 µM,0.399
same,relative viability,RU-SKI 43 + Olaparib; first compound 3.162 µM,0.383
same,relative viability,RU-SKI 43 + Olaparib; first compound 10 µM,0.273
same,relative viability,RU-SKI 43 + Palbociclib; first compound 0.1 µM,0.317
same,relative viability,RU-SKI 43 + Palbociclib; first compound 0.3162 µM,0.31
same,relative viability,RU-SKI 43 + Palbociclib; first compound 1 µM,0.351
same,relative viability,RU-SKI 43 + Palbociclib; first compound 3.162 µM,0.314
same,relative viability,RU-SKI 43 + Palbociclib; first compound 10 µM,0.323
same,relative viability,Irinotecan + Vorinostat; first compound 0.6325 µM,0.262
same,relative viability,Irinotecan + Vorinostat; first compound 2 µM,0.343
same,relative viability,Irinotecan + Vorinostat; first compound 6.325 µM,0.235
same,relative viability,Irinotecan + Vorinostat; first compound 20 µM,0.206
